# Source: patent US20230286956A1 (DUKSUNG WOMEN'S UNIVERSITY INDUSTRY-ACADEMIC COOPERATION …, priority 2020, published 2023)
# Key:
# [1] = tested on: SH-SY5Y cell line; test: Inhibition of reactive oxygen species generation (CM-H2DCFDA) after MPP+ or rotenone; type: cell-based; settings: 10 µM compound, then MPP+ (2 mM) or rotenone (2 µM) for 24 hours
# Procedure: It is known that reactive oxygen species are generated by inhibition of mitochondria, activation of NOX enzyme, and the like when MPP+ or rotenone is administered to a cell line. Since the reactive oxygen species generated at this time react with the CM-H2DCFDA reagent to be fluorescent, the reactive oxygen species can be indirectly quantified.
# Specifically, the SH-SY5Y cell line was treated with Compound 1aaa (Compound 1, 10 µM), apocynin (5 µM), or allopurinol (50 µM), and then with MPP+ (2 mM) or rotenone (2 µM) for 24 hours. The effect of each compound to inhibit the generation of reactive oxygen species is illustrated in FIGS. 2 and 3 as a relative percentage to that of the control group.
# [2] = tested on: SH-SY5Y cell line; test: Cell viability (MTT assay) after MPP+ or rotenone; type: cell-based; settings: 0.5 µM compound, then MPP+ (2 mM) or rotenone (2 µM) for 24 hours
# Procedure: Specifically, the SH-SY5Y cell line was treated with 0.5 µM of Compound 1aaa (Compound 1), 1aca (Compound 24), lace (Compound 27), 1ahe (Compound 44) or 1aje (Compound 62) and then with MPP+ (2 mM) or rotenone (2 µM) for 24 hours. Cell viability in the case of being treated with each compound is illustrated in FIGS. 4 and 5.
# [3] = tested on: alpha-synuclein; test: Alpha-synuclein aggregation (phosphorylation) inhibition, Western blotting; type: cell-based; settings: SH-SY5Y, 10 µM compound then rotenone
# Procedure: When rotenone is administered to nerve cells, phosphorylation, namely aggregation of alpha-synuclein occurs. Phosphorylation, aggregation of alpha-synuclein can be observed and quantified through Western blotting.
# Specifically, the SH-SY5Y cell line was treated with Compound 1aaa (Compound 1, 10 µM) and then with rotenone. Thereafter, Western blotting was performed to measure the expression levels of alpha-synuclein and phosphorylated alpha-synuclein, and the results are illustrated in FIG. 6.
# [4] = tested on: Nrf-2; test: Nrf-2 induction, nuclear fraction Western blotting; type: cell-based; settings: SH-SY5Y, 10 µM compound for 24 hours
# Procedure: When oxidative stress caused by reactive oxygen species increases in cells, the synthesis of antioxidants increases in response to this. One of the transcription factors mediating this antioxidant response is Nrf-2. As the transcription factor Nrf-2 enters the nucleus and the expression of genes related to antioxidation increases, the antioxidant capacity of cells increases.
# Specifically, the SH-SY5Y cell line was exposed to Compound 1aaa (Compound 1, 10 µM) for 24 hours and then the cells were taken. Thereafter, the nuclear fraction was extracted, then Western blotting was performed to analyze the amount of Nrf-2 in the nucleus, and the results are illustrated in FIG. 7.
# [5] = Single acute toxicity evaluation 1 (1000 mg/kg oral); type: in vivo, ICR mice
# Procedure: Acute toxicity properties after single administration of the compound of the present invention were evaluated in an animal model.
smiles,measurement,setting,value
CN1C(=[Se])N(c2ccccc2)C(=O)C1=Cc1ccc(O)cc1O [Compound 1aaa],inhibition of increased generation of reactive oxygen species,[1],effectively inhibits
same,cell viability / inhibition of cell death,[2],significantly inhibit cell death
same,phosphorylation of alpha-synuclein by rotenone,[3],significantly reduced
same,"amount of Nrf-2 in the nucleus, increase",[4],about 1.5 times
same,autopsy report findings,[5],no specific findings
same,organ weight,[5],no change in organ weight
same,change in body weight,[5]; day 0,100
same,change in body weight,[5]; day 1,98.06
same,change in body weight,[5]; day 2,101.29
same,change in body weight,[5]; day 3,104.85
same,change in body weight,[5]; day 5,106.47
same,change in body weight,[5]; day 7,109.39
same,acute toxicity phenomenon,[5]; observed for 1 week,a specific acute toxicity phenomenon was not observed
